Holding throughout (assay): spectral binding titration
The target of test [1] is T1, CYP11A1 (Bos taurus, UniProt P00189).
T1 sequence (P00189 40-520): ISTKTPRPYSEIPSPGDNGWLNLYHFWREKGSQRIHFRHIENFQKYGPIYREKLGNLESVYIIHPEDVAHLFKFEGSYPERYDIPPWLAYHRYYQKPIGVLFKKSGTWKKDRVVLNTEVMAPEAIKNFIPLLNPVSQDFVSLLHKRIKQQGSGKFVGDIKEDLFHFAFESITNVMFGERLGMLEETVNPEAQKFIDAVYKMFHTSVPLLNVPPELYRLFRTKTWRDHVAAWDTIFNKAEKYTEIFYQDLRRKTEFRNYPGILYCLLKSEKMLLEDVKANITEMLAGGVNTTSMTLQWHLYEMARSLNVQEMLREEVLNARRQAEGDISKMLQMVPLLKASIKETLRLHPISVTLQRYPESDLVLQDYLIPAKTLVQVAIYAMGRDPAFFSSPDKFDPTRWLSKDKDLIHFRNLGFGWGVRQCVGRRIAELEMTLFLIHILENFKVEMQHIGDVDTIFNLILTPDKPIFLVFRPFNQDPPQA

The target in test [2] is T1, CYP11A1. The source holds these as a separate data set.
Test [3] addresses T1, CYP11A1. The source holds these as a separate data set.

pKd: −log10 of the molar value. Like-named read-outs stand apart in the source and are kept apart here.

This passage reports Kd results from publication PMC3568244 (Molecular and cellular endocrinology, 2012).

The pKd is the negative decadic logarithm of the Kd, by convention in mol/L.

`NC(=NCc1ccc(Cl)cc1)SCCCc1cnc[nH]1` [Clobenpropit] had a negative logarithm of the Kd (pKd) on CYP11A1 [1] of 4.74.

In turn, `CC(C)CCC[C@@H](C)[C@H]1CC[C@H]2[C@@H]3CC=C4C[C@@H](O)CC[C@]4(C)[C@H]3CC[C@]12C` [cholesterol] showed a pKd on CYP11A1 [2] of 6.70.

In turn, `CC[C@@H]([C@H](C)O)n1ncn(-c2ccc(N3CCN(c4ccc(OC[C@@H]5CO[C@@](Cn6cncn6)(c6ccc(F)cc6F)C5)cc4)CC3)cc2)c1=O` [Posaconazole] gave a negative-log Kd (pKd) on CYP11A1 [3] of 6.00.

In the case of `CC(=O)N1CCN(c2ccc(OC[C@H]3CO[C@@](Cn4ccnc4)(c4ccc(Cl)cc4Cl)O3)cc2)CC1` (racemic) [Ketoconazole], on CYP11A1 [3], the negative-log Kd (pKd) is 5.82.

`Cc1cccc([C@H](C)c2cnc[nH]2)c1C` [Dexmedetomidine] had a negative logarithm of the Kd (pKd) on CYP11A1 [1] of 5.15.
